What was measured:
GPR54 = GPR54 (Mus musculus, UniProt Q91V45); conditions: in vivo; cited from earlier work
naive C57B1/6 mice = experiment: PPI in naive C57B1/6 mice; type: in vivo, mouse
Method: Prepulse Inhibition (PPI). PPI testing was performed within startle chambers purchased from Med Associates Inc (Med Associates, St. Albans, Vt., USA). […] Briefly, during a period of acclimation, a 65-dB background noise was applied for 5-min, and continued throughout the test session. All sessions for testing of PPI consisted of startle trials (pulse alone, 40-ms, 120-dB), prepulse trials (prepulse 20-ms, 69, 73, 78, or 81 dB followed by a (100-ms delay) pulse), and no-stimulus trials. All sessions were presented in pseudo-random order. The average time between trials was 15 s (range 12-30 s). PPI was calculated as: % PPI=100−{[(startle response for prepulse+pulse)/(startle response for pulse-alone)]×100}. […] Data from no-stimulation trials are not included in the results because the values obtained were negligible relative to values from trials containing startle stimuli.
Kisspeptin treatment. Mice were injected i.p with 100 μl of 1/10/100 μM Kp-10 peptide (SEQ ID NO:3) (synthesized at the Weizmann Institute of Science, or Sigma-Aldrich, Israel) dissolved in PBS, 30 minutes before the PPI analysis.
Neurotensin receptor antagonist SR142948 (TOCRIS COOKSON LTD) was used at 100 μg/kg 60 min before the PPI analysis.
GnRH receptor antagonist Cetrorelix Acetate (Cetrotide™, Anaspec Inc. Fremont, Calif.). Control mice were administered the same volume of PBS.
To examine whether Kp-10 can elevate PPI in naïve mice in a dose dependent manner, we analyzed PPI in C57B1/6 mice that were injected i.p with 100 μl of 1/10/100 μM Kp-10 (SEQ ID NO:3).

C57B1/6 mice = experiment: PPI in MK-801 pharmacological model of schizophrenia; type: in vivo, mouse; conditions: Kp-10 i.p. 100 μl of 100 μM 15 min prior to MK-801 (0.1 mg/kg)
Method: (§1) Prepulse Inhibition (PPI). PPI testing was performed within startle chambers purchased from Med Associates Inc (Med Associates, St. Albans, Vt., USA). PPI was analyzed as described previously (Kipnis et al., 2004). Briefly, during a period of acclimation, a 65-dB background noise was applied for 5-min, and continued throughout the test session. All sessions for testing of PPI consisted of startle trials (pulse alone, 40-ms, 120-dB), prepulse trials (prepulse 20-ms, 69, 73, 78, or 81 dB followed by a (100-ms delay) pulse), and no-stimulus trials. All sessions were presented in pseudo-random order. The average time between trials was 15 s (range 12-30 s). PPI was calculated as: % PPI=100−{[(startle response for prepulse+pulse)/(startle response for pulse-alone)]×100}. In all the experiments, there were no significant differences between groups in trials of startle reactivity to pulse alone, and in no-stimulation trials. Data from no-stimulation trials are not included in the results because the values obtained were negligible relative to values from trials containing startle stimuli. Reduced PPI is associated with schizophrenia-related behavior. […]
To further establish the antipsychotic effect of Kp-10, we evaluated its ability to overcome psychotic symptoms induced by the psycho-mimetic agent, MK-801 (N-methyl-D-aspartate (NMDA) antagonist), which induces neurotransmitter imbalance. […]

naive mice = experiment: Tail suspension test; type: in vivo, mouse; conditions: 100 μl of 100 μM, vs PBS
Method: Tail suspension test. The tail suspension apparatus was made of horizontal metal rod supported by a stand. Each mouse was suspended from its tail using adhesive tape, suspending each mouse individually. The immobility time was measured during a 6 min observation period, latency to first immobility and total immobility was calculated (FIG. 10A).
The results we presented above using the PPI paradigm only relate to the psychotic symptoms of schizophrenia. However, schizophrenia patients suffer from cognitive and negative symptoms as well (i.e depression). […] To address whether Kp-10 has an antidepressant potency we studied its effect in the tail suspension test, an established method for screening antidepressant-like activity in mice (Steru et al., 1985; Cryan et al., 2005). Naïve mice were treated with Kp-10 (SEQ ID NO:3; 100 μl of 100 μM) or PBS and were subjected to the tail suspension test, in which the mouse is suspended by the tail from a lever, and the movements of the animal are recorded (FIG. 10A). The latency to the first immobility was longer and the duration of the total immobility was shorter in the Kp-10 treated mice compared to PBS treated mice (FIGS. 10B-10C).

BDNF [1] = experiment: qPCR of BDNF transcripts in hippocampus; type: in vivo, mouse; conditions: mRNA, offspring of poly I:C treated dams treated at 8 weeks with Kp-10 or PBS
Method: RNA purification, cDNA synthesis, reverse transcription PCR, and real-time quantitative PCR analysis. For RNA expression analysis, cells from whole hippocampi were extracted with TRI Reagent (MRC, Cincinnati, Ohio), and total cellular RNA was purified from the lysates using the RNeasy kit (Qiagen, Hilden, Germany). RNA (1 μg) was converted to cDNA using SuperScript II (Promega, Madison, Wis.). The amplification cycle was 95° C. for 5 s, 60° C. for 20 s, and 72° C. for 15 s.
The following primers were used: […]
To understand what is the mechanism behind the prophylactic treatment of Kp-10 we examined the expression of total brain-derived neurotrophic factor (BDNF) and its exon transcripts 1-4 according to Zajac et al. (2010). […] Recently, association between a BDNF variant and childhood-onset mood disorder was established (Strauss et al., 2005). Therefore, we studied mRNA expression of a few BDNF transcripts in the hippocampus of offspring of PBS treated dams (n=5) compared to offspring of poly I:C treated dams, which were treated at 8 weeks with either Kp-10 (n=6) or PBS (n=6) (Table 3). […] Treatment with Kp-10 at 8 weeks of age induced an increase in the expression of BDNF1 transcript to the normal level (Table 3(ii)). […] In addition, no significant difference was found between the groups in the expression of BDNF transcripts 3 and 4 (Table 3(iv and v)). […] The involvement of BDNF in schizophrenia and its effect on PPI levels are still a debate. Our observations of changes in expression of selective forms of BDNF might explain this apparent dichotomy.

SCID mice = experiment: Prepulse inhibition (PPI) in SCID mice; type: in vivo, mouse; conditions: adult (12 week old) SCID mice, i.p. 100 μl of 100 μM, 30 minutes prior to PPI testing, vs PBS
Method: as §1, with “trials.” for “trials. Data from no-stimulation trials are not included in the results because the values obtained were negligible relative to values from trials containing startle stimuli. Reduced PPI is associated with schizophrenia-related behavior.”
To confirm this possibility we examined whether injection of kisspeptin can restore the abnormal PPI in SCID mice to the normal level in wild-type mice. We analyzed the PPI in adult (12 week old) wild-type mice and, in SCID mice that were injected IP with 100 μl of 100 μM Kp-10 (SEQ ID NO:3), 30 minutes prior to PPI testing. […]

BDNF [2] = conditions: hippocampal slices; cited from earlier work

Sequence of GPR54 (Q91V45 whole entry): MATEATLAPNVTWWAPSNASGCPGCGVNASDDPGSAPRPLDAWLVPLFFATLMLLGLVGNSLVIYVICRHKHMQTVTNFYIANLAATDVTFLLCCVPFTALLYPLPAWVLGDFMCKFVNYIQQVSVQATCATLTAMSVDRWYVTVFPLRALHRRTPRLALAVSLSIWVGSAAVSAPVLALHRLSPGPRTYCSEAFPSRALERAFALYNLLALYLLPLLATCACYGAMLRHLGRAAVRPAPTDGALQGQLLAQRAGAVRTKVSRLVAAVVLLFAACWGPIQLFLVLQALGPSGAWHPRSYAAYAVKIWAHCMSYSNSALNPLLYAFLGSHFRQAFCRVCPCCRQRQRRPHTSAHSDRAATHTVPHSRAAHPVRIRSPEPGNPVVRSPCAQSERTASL

YNWNSFGLRF—NH2 [Kp-10]
GPR54 activation (GPR54): activate GPR54 in vivo | PPI (naive C57B1/6 mice; 100 μl of 1000 μM, small group, data not shown, vs PBS): no improvement was detected | PPI (naive C57B1/6 mice; female C57B1/6 mice, single dose 100 μl of 100 μM): significantly increased the PPI | PPI 24 hours after administration (ANOVA of percent PPI) (naive C57B1/6 mice; male mice, 100 μl of 100 μM): no significant main effect of the treatment | duration of the effect on PPI (naive C57B1/6 mice; male mice, 100 μl of 100 μM): less than 24 hours | PPI after repeated injection (naive C57B1/6 mice; male mice, repeated injection 24 hours after the first): induced the elevation of the PPI again | PPI after repeated injection (naive C57B1/6 mice; male mice, repeated injection 7 days after the first): induced the elevation of the PPI again | PPI at adulthood (naive C57B1/6 mice; naive animals, single injection at adolescence, vs PBS): no differences between the Kp-10 and the PBS treated mice | PPI (naive C57B1/6 mice; naive male mice, i.p. 100 μl of 1 μM, vs PBS): improved PPI but the improvement was not statistically significant | PPI (naive C57B1/6 mice; naive male mice, i.p. 100 μl of 10 μM, vs PBS): significantly increased PPI | PPI (naive C57B1/6 mice; naive male mice, i.p. 100 μl of 100 μM, vs PBS): significantly increased PPI | PPI levels (C57B1/6 mice): improved the PPI levels | duration of the total immobility (naive mice): shorter | latency to the first immobility (naive mice): longer | Expression of BDNF1 transcript (BDNF [1]): *2.2 ± 0.5 | Expression of BDNF2 transcript (BDNF [1]): ^#6.7 ± 1 ^ | Expression of BDNF3 transcript (BDNF [1]): 8 ± 3 | Expression of BDNF4 transcript (BDNF [1]): 9 ± 2 | Expression of BDNF transcript (total BDNF) (BDNF [1]): 2.4 ± 0.5 | PPI (SCID mice): restored the PPI of SCID mice back to the normal level | BDNF mRNA levels (BDNF [2]): elevate BDNF mRNA levels
